Measurements as given in patent US8889874B2, “Imidazolone-chalcone derivatives as potential anticancer agent and process for the preparation thereof” (Council of Scientific and Industrial Research, priority 2010, dated 2014).
Where two headings read alike, the source gives them in different places.

Columns and labels:
Format in all cases: cell-based, human
Breast cancer cell lines = experiment: NCI anticancer screen, SRB assay, panel summary; conditions: Homo sapiens
In short: (§1)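 Sulforhodamine B protein assay read cell growth after 48 h of continuous compound exposure. Dose-response curves per cell line used at least five 10-fold-diluted concentrations, within a panel of fifty-three human lines from nine tumour types.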

Renal cancer cell lines = experiment: NCI anticancer screen, SRB assay, panel summary; conditions: Homo sapiens
In short: as §1

Colon cancer cell lines = experiment: NCI anticancer screen, SRB assay, panel summary; conditions: for GI50: Homo sapiens
In short: as §1

[1] = system: Melanoma cancer cell lines; experiment: NCI anticancer screen, SRB assay, panel summary; conditions: for GI50: Homo sapiens
In short: as §1

[2] = system: Non-small cell lung cancer cell lines; experiment: NCI anticancer screen, SRB assay, panel summary; conditions: Homo sapiens
In short: as §1

[3] = system: Leukemia cancer cell lines; experiment: NCI anticancer screen, SRB assay, panel summary; conditions: Homo sapiens
In short: as §1

[4] = system: Ovarian cancer cell lines; experiment: NCI anticancer screen, SRB assay, panel summary; conditions: Homo sapiens
In short: as §1

[5] = system: Prostate cancer cell lines; experiment: NCI anticancer screen, SRB assay, panel summary
In short: as §1

CNS cancer cell lines = experiment: NCI anticancer screen, SRB assay, panel summary; conditions: for GI50: Homo sapiens
In short: as §1

A498 (renal) = experiment: NCI anticancer screen, SRB assay, 48 h; conditions: Homo sapiens
In short: as §1

HCC-2998 (colon) = experiment: NCI anticancer screen, SRB assay, 48 h; conditions: Homo sapiens
In short: as §1

HT29 (colon) = experiment: NCI anticancer screen, SRB assay, 48 h; conditions: Homo sapiens
In short: as §1

SF-539 (CNS) = experiment: NCI anticancer screen, SRB assay, 48 h; conditions: Homo sapiens
In short: as §1

M14 (melanoma) = experiment: NCI anticancer screen, SRB assay, 48 h; conditions: Homo sapiens
In short: as §1

[6] = system: NCI-H460 (non-small cell lung); experiment: NCI anticancer screen, SRB assay, 48 h; conditions: Homo sapiens
In short: as §1

[7] = system: HOP-92 (non-small cell lung); experiment: NCI anticancer screen, SRB assay, 48 h; conditions: Homo sapiens
In short: as §1

SF-295 (CNS) = experiment: NCI anticancer screen, SRB assay, 48 h; conditions: Homo sapiens
In short: as §1

MDA-MB-231/ATCC (breast) = experiment: NCI anticancer screen, SRB assay, 48 h; conditions: Homo sapiens
In short: as §1

OVCAR-3 (ovarian) = experiment: NCI anticancer screen, SRB assay, 48 h; conditions: Homo sapiens
In short: as §1

BT-549 (breast) = experiment: NCI anticancer screen, SRB assay, 48 h; conditions: Homo sapiens
In short: as §1

SNB-75 (CNS) = experiment: NCI anticancer screen, SRB assay, 48 h; conditions: Homo sapiens
In short: as §1

SK-MEL-2 (melanoma) = experiment: NCI anticancer screen, SRB assay, 48 h; conditions: Homo sapiens
In short: as §1

[8] = system: A549/ATCC (non-small cell lung); experiment: NCI anticancer screen, SRB assay, 48 h; conditions: Homo sapiens
In short: as §1

ACHN (renal) = experiment: NCI anticancer screen, SRB assay, 48 h; conditions: Homo sapiens
In short: as §1

TD-47D (breast) = experiment: NCI anticancer screen, SRB assay, 48 h; conditions: Homo sapiens
In short: as §1

SK-MEL-28 (melanoma) = experiment: NCI anticancer screen, SRB assay, 48 h; conditions: Homo sapiens
In short: as §1

LOX IMVI (melanoma) = experiment: NCI anticancer screen, SRB assay, 48 h; conditions: Homo sapiens
In short: as §1

SN12C (renal) = experiment: NCI anticancer screen, SRB assay, 48 h; conditions: Homo sapiens, SN12C
In short: as §1

PC-3 (prostate) = experiment: NCI anticancer screen, SRB assay, 48 h; conditions: Homo sapiens
In short: as §1

HS 578T (breast) = experiment: NCI anticancer screen, SRB assay, 48 h; conditions: Homo sapiens
In short: as §1

KM12 (colon) = experiment: NCI anticancer screen, SRB assay, 48 h; conditions: Homo sapiens
In short: as §1

[9] = system: NCI-H23 (non-small cell lung); experiment: NCI anticancer screen, SRB assay, 48 h; conditions: Homo sapiens
In short: as §1

COLO 205 (colon) = experiment: NCI anticancer screen, SRB assay, 48 h; conditions: Homo sapiens, COLO 205
In short: as §1

[10] = 48 h exposure, SRB, read-out: GI50
[11] = read-out: pGI50 (-log of molar concentration causing 50% inhibition of net cell growth) (converted)

## COc1cc(/C=C/C(=O)c2cccc(-n3cc(-c4ccccc4)[nH]c3=O)c2)cc(OC)c1OC [5a, 4-phenyl-1-3-[(E)-3-(3,4,5-trimethoxyphenyl)-2-propenoyl]phenyl-2,3-dihydro-1H-2-imidazolone]
Breast cancer cell lines; Breast panel, log of concentration in mol/L causing 50% inhibition of net cell growth, read-out: mean graph midpoint (MG_MID) of Log10 GI50 (converted)
  GI50: 1580 nM
Breast cancer cell lines; Breast panel, log of concentration leading to 50% net cell death, read-out: mean graph midpoint (MG_MID) of Log10 LC50 (converted)
  LC50: 38 µM
Breast cancer cell lines; five breast cancer cell lines, exposure at least 48 hrs, read-out: GI50, range over the panel
  GI50: 310 to 3410 nM
Renal cancer cell lines; Renal panel, log of concentration in mol/L causing 50% inhibition of net cell growth, read-out: mean graph midpoint (MG_MID) of Log10 GI50 (converted)
  GI50: 1910 nM
Renal cancer cell lines; Renal panel, log of concentration leading to 50% net cell death, read-out: mean graph midpoint (MG_MID) of Log10 LC50 (converted)
  LC50: 17 µM
Renal cancer cell lines; eight renal cancer cell lines, exposure at least 48 hrs, read-out: GI50, range over the panel
  GI50: 1380 to 3020 nM
Colon cancer cell lines; Colon panel, log of concentration leading to 50% net cell death
  mean graph midpoint (MG_MID) of Log10 LC50: 5.23
Colon cancer cell lines; Colon panel, log of concentration in mol/L causing 50% inhibition of net cell growth, read-out: mean graph midpoint (MG_MID) of Log10 GI50 (converted)
  GI50: 832 nM
Colon cancer cell lines; seven colon cancer cell lines, exposure at least 48 hrs, read-out: GI50, range over the panel
  GI50: 330 to 1510 nM
[1]; Melanoma panel, log of concentration in mol/L causing 50% inhibition of net cell growth, read-out: mean graph midpoint (MG_MID) of Log10 GI50 (converted)
  GI50: 1320 nM
[1]; nine melanoma cancer cell lines, exposure at least 48 hrs, read-out: GI50, range over the panel
  GI50: 480 to 2060 nM
[1]; Melanoma panel, log of concentration leading to 50% net cell death
  mean graph midpoint (MG_MID) of Log10 LC50: 5.02
[2]; Non-small cell lung panel, log of concentration in mol/L causing 50% inhibition of net cell growth, read-out: mean graph midpoint (MG_MID) of Log10 GI50 (converted)
  GI50: 3.09 µM
[2]; Non-small cell lung panel, log of concentration leading to 50% net cell death, read-out: mean graph midpoint (MG_MID) of Log10 LC50 (converted)
  LC50: 32.4 µM
[2]; nine non-small cell lung cancer cell lines, exposure at least 48 hrs, read-out: GI50, range over the panel
  GI50: 0.95 to 14.6 µM
[3]; Leukemia panel, log of concentration in mol/L causing 50% inhibition of net cell growth, read-out: mean graph midpoint (MG_MID) of Log10 GI50 (converted)
  GI50: 562 nM
[3]; Leukemia panel, log of concentration leading to 50% net cell death, read-out: mean graph midpoint (MG_MID) of Log10 LC50 (converted)
  LC50: ≥ 100 µM
[3]; two leukemia cancer cell lines (RPMI-8226 and K-562), exposure at least 48 hrs, read-out: GI50, range over the panel
  GI50: 500 to 620 nM
[4]; Ovarian panel, log of concentration in mol/L causing 50% inhibition of net cell growth, read-out: mean graph midpoint (MG_MID) of Log10 GI50 (converted)
  GI50: 1740 nM
[4]; Ovarian panel, log of concentration leading to 50% net cell death, read-out: mean graph midpoint (MG_MID) of Log10 LC50 (converted)
  LC50: 42.7 µM
[4]; six ovarian cancer cell lines, exposure at least 48 hrs, read-out: GI50, range over the panel
  GI50: 1100 to 3270 nM
[5]; Homo sapiens, log of concentration in mol/L causing 50% inhibition of net cell growth, read-out: mean graph midpoint (MG_MID) of Log10 GI50 (converted)
  GI50: 3.24 µM
[5]; Homo sapiens, log of concentration leading to 50% net cell death, read-out: mean graph midpoint (MG_MID) of Log10 LC50 (converted)
  LC50: ≥ 100 µM
[5]; log of concentration resulting in total inhibition of net cell growth
  mean graph midpoint (MG_MID) of Log10 TGI: 4.68
CNS cancer cell lines; CNS panel, log of concentration leading to 50% net cell death
  mean graph midpoint (MG_MID) of Log10 LC50: 5.13
CNS cancer cell lines; CNS panel, log of concentration in mol/L causing 50% inhibition of net cell growth, read-out: mean graph midpoint (MG_MID) of Log10 GI50 (converted)
  GI50: 1860 nM
CNS cancer cell lines; six CNS cancer cell lines, exposure at least 48 hrs, read-out: GI50, range over the panel
  GI50: 630 to 4470 nM
A498 (renal); [10]
  GI50: 2650 nM
A498 (renal); [11]
  GI50: 2630 nM
HCC-2998 (colon); [10]
  GI50: 1260 nM
HCC-2998 (colon); [11]
  GI50: 1260 nM
HT29 (colon); HT-29, 48 h exposure, SRB, read-out: GI50
  GI50: 660 nM
HT29 (colon); HT-29, read-out: pGI50 (-log of molar concentration causing 50% inhibition of net cell growth) (converted)
  GI50: 661 nM
SF-539 (CNS); [10]
  GI50: 1680 nM
SF-539 (CNS); [11]
  GI50: 1700 nM
M14 (melanoma); [10]
  GI50: 1350 nM
M14 (melanoma); [11]
  GI50: 1350 nM
[6]; [10]
  GI50: 1400 nM
[6]; [11]
  GI50: 1410 nM
[7]; [10]
  GI50: 10.8 µM
[7]; [11]
  GI50: 10.7 µM
SF-295 (CNS); [10]
  GI50: 1900 nM
SF-295 (CNS); [11]
  GI50: 1910 nM
MDA-MB-231/ATCC (breast); [10]
  GI50: 2170 nM
MDA-MB-231/ATCC (breast); [11]
  GI50: 2190 nM
OVCAR-3 (ovarian); [10]
  GI50: 1230 nM
OVCAR-3 (ovarian); [11]
  GI50: 1230 nM
BT-549 (breast); [10]
  GI50: 1930 nM
BT-549 (breast); [11]
  GI50: 1950 nM
SNB-75 (CNS); [10]
  GI50: 4.47 µM
SNB-75 (CNS); [11]
  GI50: 4.47 µM
SK-MEL-2 (melanoma); [10]
  GI50: 2060 nM
SK-MEL-2 (melanoma); [11]
  GI50: 2040 nM
[8]; [10]
  GI50: 4.03 µM
[8]; [11]
  GI50: 4.07 µM
ACHN (renal); [10]
  GI50: 1600 nM
ACHN (renal); [11]
  GI50: 1580 nM
TD-47D (breast); [10]
  GI50: 2190 nM
TD-47D (breast); [11]
  GI50: 2190 nM
SK-MEL-28 (melanoma); [10]
  GI50: 1740 nM
SK-MEL-28 (melanoma); [11]
  GI50: 1740 nM
LOX IMVI (melanoma); [10]
  GI50: 480 nM
LOX IMVI (melanoma); [11]
  GI50: 479 nM
SN12C (renal); SN 12C, read-out: pGI50 (-log of molar concentration causing 50% inhibition of net cell growth) (converted)
  GI50: 2090 nM
SN12C (renal); [10]
  GI50: 2090 nM
PC-3 (prostate); PC-3, read-out: pGI50 (-log of molar concentration causing 50% inhibition of net cell growth) (converted)
  GI50: 3.24 µM
PC-3 (prostate); one prostate cancer cell line (PC-3), exposure at least 48 hrs, read-out: GI50
  GI50: 3.26 µM
HS 578T (breast); [10]
  GI50: 3.41 µM
HS 578T (breast); [11]
  GI50: 3.39 µM
KM12 (colon); [10]
  GI50: 1370 nM
KM12 (colon); [11]
  GI50: 1380 nM
[9]; [10]
  GI50: 1430 nM
[9]; [11]
  GI50: 1450 nM
COLO 205 (colon); COLO205, read-out: pGI50 (-log of molar concentration causing 50% inhibition of net cell growth) (converted)
  GI50: 1510 nM
COLO 205 (colon); [10]
  GI50: 1510 nM
